Reference: patent US12616760B2, “Synthetic cyclic peptide mimetics” (priority 2020, dated 2026)
Where two headings read alike, the source gives them in different places. Numbered stars: 1 amine (or outer) side, 2 acyl side, 3 side chain; on linkers, the order of the positions; unused ones are H or OH. Square brackets hold non-standard residues; d marks the D form. Peptide text beside a SMILES is read from it. * marks the point of attachment. NOTA = O=C(O)CN1CCN(CC(=O)O)CCN(CC(=O)*)CC1; azaPhe = O=C(N(Cc1ccccc1)N[*:1])[*:2]; Nle = CCCC[C@H](N)C(=O)O; azaGly = NNC(=O)O

Tests used:
Aβ species = test: PET imaging of ^64Cu-conjugates in 5×FAD mice; format: in vivo; conditions: for Aβ uptake (activity in the Aβ species) / Aβ uptake relative to ^64Cu-1-NOTA: 6-month old 5×FAD mice; for Aβ uptake (activity in the Aβ species): 20 h post-injection
Description: (§1) Images were taken 3 weeks apart on the same 5×FAD mouse for ^64Cu-conjugate 43 and ^11C-PIB (FIGS. 1B and C) using the 2-(4′-[^11C]methylaminophenyl)-6-hydroxybenzothiazole (^11C-PIB) compound. Use of ^11C-PIB is limited to 1 h due to short half-life (t1/2=20.4 min). […] In control 44 day-old WT mouse at 1-day post-injection of ^64Cu-conjugate 43, brain uptake is very low (FIG. 1D). Non-transgenic littermates (labeled as wild type (WT) controls in the text and FIG. 1D) were housed in the same manner as 5×FAD mice and used for comparison.
(§2) Amyloid plaque detection was evaluated in 4.5-7-month-old Tg [5×FAD] mice and age-matched wild-type controls using the ^11C-PIB compound. 5×FAD mice carry both mutant human APP(695) with the Swedish (K670N, M671L), Florida ([…]), and London (V717I) Familial Alzheimer's Disease (FAD) mutations and human PS1 harboring two FAD mutations, M146L and L286V. 5×FAD mice develop plaque formation beginning at 2 months and cognitive deficits at 4-6 months. […] Amyloid beta of ^64Cu-conjugate 40 in hippocampus at 1 h post injection (1.285±0.034% ID/g) was similar to that of ^11C-PIB (1.038±0.028% ID/g. FIG. 1) in the cortex.
(§3) Red and blue colours represent respectively highest and zero uptake. […] Different intensity scales were used for PET images. […] Images were taken 3 weeks apart on different mouse for ^64Cu-43 and ^11C-PIB. Co-registration of experimental image data with brain mask to mouse atlas space was achieved to identify volumes of interest. 1. Striatum; 2. Cortex; 3. Hippocampus; 4. Thalamus; 5. Cerebellum; 6. Basal forebrain septum; 7. Hypothalamus; 8. Amygdala; 9. Brain stem; 10. Central gray; 11. […] Olfactory bulb; 13. Midbrain; 14.

[1] = PET imaging and biodistribution, formulation tests in Balb/c mice; format: in vivo
Description: Different formulations were tested with the ^64Cu-1-NOTA conjugate to investigate the solubility of the PET tracer in vivo and select the best formulation for PET imaging studies. […] For further in vivo studies, 8% DMSO and 9% sucrose (for azaconjugates) were used.

[2] = PET imaging of ^64Cu-conjugates in 5×FAD mice; format: in vivo; conditions: mouse, in vivo, total radioactivity
Description: as §1, §2, §3

Aβ40 = biological target: T1, Aβ40 (Homo sapiens, UniProt P05067); test: Thioflavin T (ThT) fluorescence assay of Aβ40 aggregation; format: biochemical; conditions: ThT; for Inhibition of amyloidogenic activity(%): Table 5; for Inhibition of amyloidogenic activity: Table 4
T1 construct: The extent of Aβ40 aggregation in the presence of increasing concentrations of azacyclopeptides
T1 sequence (P05067 672-711 limits assumed): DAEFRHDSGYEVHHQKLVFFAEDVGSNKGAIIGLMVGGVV
Description: Amyloid generation can be identified and quantified using the thioflavin T (ThT) fluorescence dye assay. […] Agents that bind and inhibit aggregation of Aβ diminish ThT fluorescence relative to untreated Aβ. The extent of Aβ40 aggregation in the presence of increasing concentrations of azacyclopeptides and azasulfurylcyclopeptide 55 was evaluated by the ThT assay. Fluorescence of Aβ40 that was aged for 48 h was used as control, defined as 0% anti-amyloidogenic activity, and compared with fluorescence in the presence of cyclic peptide mimics at increasing concentrations to measure anti-amyloidogenic activity.

[3] = test system: rat pheochromocytoma PC12 cells; format: cell-based; set-up: Cells survival (%): concentration or dose not given beside the values; conditions: PC12, MTT
Description: Considering that self-assembly and aggregation of Aβ are key components of AD pathogenesis, the ability of azaGly-cyclopeptides 2-7 to reduce Aβ-induced toxicity was next tested in rat pheochromocytoma PC12 cells. Cells were incubated for 24 h with Aβ40 (10 μM) that had been aged for 48 h in the presence and absence of increasing concentrations of the azacyclopeptides. Cell viability was assessed using the 3-(4,5-dimethylthiazol-2-yl)-2,5-diphenyltetrazolium bromide (MTT) survival assay (Table 2). In this assay, viable cells reduce permeable MTT by active metabolism to produce a purple-colored formazan product with absorbance maximum near 570 nm. Dead cells lose the ability to convert MTT into formazan. The quantity of formazan is therefore directly proportional to the number of viable cells and measurable over time by recording changes in absorbance using a spectrophotometer. Neurons are susceptible to the lethal effects of misfolded proteins which are likely to aggregate at increased concentration. The pheochromocytoma (PC12) cell line is commonly used in in vitro studies to examine neuronal variation and neurotoxicity as a model of neurodegenerative disease.

Row | Molecule | Inhibition of amyloidogenic activity(%) (Aβ40; Aβ:peptide 1:1) | Inhibition of amyloidogenic activity(%) (Aβ40; Aβ:peptide 1:5) | Inhibition of amyloidogenic activity(%) (Aβ40; Aβ:peptide 1:10) | Cells survival (%) ([3]; Table 5, Aβ:peptide 1:1) | Cells survival (%) ([3]; Table 5, Aβ:peptide 1:5) | Inhibition of amyloidogenic activity (Aβ40; Aβ:peptide 1:1) [%] | Inhibition of amyloidogenic activity (Aβ40; Aβ:peptide 1:5) [%] | Inhibition of amyloidogenic activity (Aβ40; Aβ:peptide 1:10) [%] | Cells survival (%) ([3]; Table 4, Aβ:peptide 1:1) | Cells survival (%) ([3]; Table 4, Aβ:peptide 1:5) | further results
1 | [11CH3]Nc1ccc(-c2nc3ccc(O)cc3s2)cc1 [^11C-PIB, 2-(4′-[^11C]methylaminophenyl)-6-hydroxybenzothiazole, reference compound] |  |  |  |  |  |  |  |  |  |  | uptake in the cortex (Aβ species; 5×FAD mice, ^11C-PIB): 1.038±0.028 % ID/g
2 | CCCC[C@@H]1NC(=O)[C@@H](CC(C)C)NC(=O)[C@H](CCCCNC(=O)CN2CCN(CC(=O)O)CCN(CC(=O)O)CC2)NC(=O)[C@@H](CO)NC(=O)[C@H](Cc2c[nH]cn2)NC(=O)[C@@H](Cc2c[nH]c3ccccc23)NC1=O [^64Cu-1-NOTA, metal not drawn] (cyclo([dL][Nle][dW]H[dS]K(NOTA))) |  |  |  |  |  |  |  |  |  |  | Aβ uptake (activity in the Aβ species) (Aβ species): 0.430±0.010 % ID/g; organ uptake ([1]; Intra-lipid (20% IV fat-emulsion) formulations): lower uptake in the lungs and a higher uptake in the gastrointestinal tract and gallbladder; organ uptake ([1]; formulated in 8% DMSO): High lung and liver uptake
3 | CCCC[C@@H]1NC(=O)N(Cc2ccccc2)NC(=O)[C@H](CCCCNC(=O)CN2CCN(CC(=O)O)CCN(CC(=O)O)CC2)NC(=O)[C@@H](CO)NC(=O)[C@H](Cc2c[nH]cn2)NC(=O)[C@@H](Cc2c[nH]c3ccccc23)NC1=O [^64Cu-conjugate 40, metal not drawn] (cyclo([azaPhe][Nle][dW]H[dS]K(NOTA))) |  |  |  |  |  |  |  |  |  |  | tissue uptake ([2]; 5×FAD mice at 4.5 months, read-out: accumulation of activity in the Aβ species): 0.165 ± 0.005 %ID/g; tissue uptake at 1 h ([2]; 5×FAD mice, 1 h post injection, read-out: uptake in hippocampus): 1.28 ± 0.034 %ID/g; tissue uptake at 20 h ([2]; 6-month old 5×FAD mice, 20 h post-injection, read-out: Aβ uptake (activity in the Aβ species)): 2.1 ± 0.059 %ID/g; time of highest activity value in Aβ species (Aβ species; 5×FAD mice, post injection): 1 days; Aβ uptake relative to ^64Cu-1-NOTA (Aβ species): approximatively five times superior; Aβ uptake (activity in the Aβ species) (Aβ species): 2.102±0.059 % ID/g
4 | CCCC[C@@H]1NC(=O)[C@@H](CC(C)C)NC(=O)[C@H](CCCCNC(=O)CN2CCN(CC(=O)O)CCN(CC(=O)O)CC2)NC(=O)NNC(=O)[C@H](Cc2c[nH]cn2)NC(=O)[C@@H](Cc2c[nH]c3ccccc23)NC1=O [^64Cu-conjugate 43, metal not drawn] (cyclo([dL][Nle][dW]H[azaGly]K(NOTA))) |  |  |  |  |  |  |  |  |  |  | Aβ uptake relative to ^64Cu-1-NOTA (Aβ species): approximatively five times superior; Aβ uptake (activity in the Aβ species) (Aβ species): 2.030±0.056 % ID/g; uptake into the thalamus (Aβ species; Tg female 5×FAD AD mice, 9% sucrose in saline, 1-day post-injection): increased with age from 44 to 72 days; brain uptake (Aβ species; control 44 day-old WT mouse, 1-day post-injection): very low
5 | c(4-Phe*-L-Nlc-D-Trp-L-His-D-Ser-L-Lys) [Compound 20] | 1.6 | 48.4 | 68.4 | 73.0 | 84.9 |  |  |  |  |  | 
6 | c(D-Leu-L-Nle-D-Trp-D-His-IPrTyr*-L-Lys) [Compound 11] | 3.5 | 54.7 | 54.2 | 72.4 | 74.3 |  |  |  |  |  | 
7 | c(D-Leu-L-Nle-D-Trp-L-His-D-Ser-Lys*) [Compound 8] |  |  |  |  |  | 54.4 | 77.8 | 80.9 | 80.1 | 91.3 | 
8 | c(D-Leu-L-Nle-D-Trp-L-His-Hse*-L-Lys) [Compound 9] |  |  |  |  |  | 8.3 | 77.9 | 77.2 | 82.8 | 97.9 | 
9 | c(D-Leu-L-Nle-D-Trp-L-His-IPrTyr*-L-Lys) [Compound 10] | 8.2 | 85.2 | 86.2 | 75.4 | 83.4 |  |  |  |  |  | 
10 | c(D-Leu-L-Nle-D-Trp-Phe*-D-Ser-L-Lys) [Compound 12] | 54.4 | 77.7 | 80.9 | 70.1 | 87.9 |  |  |  |  |  | 
11 | c(D-Leu-L-Nle-D-Trp-Pra*-D-Ser-L-Lys) [Compound 14] | 76.9 | 81.2 | 81.4 | 71.7 | 83.5 |  |  |  |  |  | 
12 | c(D-Leu-L-Nle-D-Trp-Tal*-D-Ser-L-Lys) [Compound 13] |  |  |  |  |  | 58.0 | 72.6 | 78.4 | 70.8 | 96.3 | 
13 | c(D-Leu-L-Nle-Itr*-L-His-D-Ser-L-Lys) [Compound 15] |  |  |  |  |  | 78.0 | 81.6 | 86.1 | 78.8 | 71.7 | 
14 | c(D-Leu-Nle*-D-Trp-L-His-D-Ser-L-Lys) [Compound 16] |  |  |  |  |  | 72.9 | 76.4 | 85.1 | 86.3 | 94.5 | 
15 | c(D-Leu-Phe*-D-Trp-L-His-D-Ser-L-Lys) [Compound 17] | 3.5 | 36.9 | 79.8 | 61.8 | 69.5 |  |  |  |  |  | 
16 | c(Leu*-L-Nlc-D-Trp-L-His-D-Ser-L-Lys) [Compound 18] |  |  |  |  |  | 15.4 | 17.1 | 37.5 | 72.8 | 76.3 | 
17 | c(Phe*-L-Nle-D-Trp-L-His-D-Ser-L-Lys) [Compound 19] | 12.5 | 54.5 | 61.2 | 73.0 | 74.5 |  |  |  |  |  | 
